Among the test systems are SK-MEL-2 melanoma; HCT-116 colon; SNB-75 CNS; HOP-92 NSCLC; M14 melanoma; SK-MEL-5 melanoma; HL-60(TB) leukemia; RPMI-8226 leukemia; MDA-MB-435; K-562 leukemia.
What all share (assay): NCI-60 cell line screen, 48 h

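Dose response: 5 concentrations. Exposure: 48 h. Format: 96-well plates. Endpoint: linear interpolation; highest concentration if not reached. Definition used: TGI = concentration required for complete inhibition of growth.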

With `O=C(NCCCCNCCCNC(=O)OCc1ccccc1)OCc1ccccc1`, the TGI with SK-MEL-2 melanoma is 59.8 µM; in the assay with HCT-116 colon, 70 µM; in the assay with SNB-75 CNS, 89.4 µM; with HOP-92 NSCLC it was 87.3 µM; in the assay on M14 melanoma it was 40.1 µM; in the assay with SK-MEL-5 melanoma it was 32.5 µM. Also, the TGI was 60.4 µM in the assay on HL-60(TB) leukemia, greater than 100 µM in the assay on RPMI-8226 leukemia, greater than 100 µM in the assay with MDA-MB-435 and 80.7 µM in the assay on K-562 leukemia.
As for `COC(=O)c1c(C#C[Si](C)(C)C)c(C#C[Si](C)(C)C)c(C#C[Si](C)(C)C)c(C#C[Si](C)(C)C)c1C(=O)OC`, the TGI with SK-MEL-2 melanoma, in the assay on HCT-116 colon, in the assay on SNB-75 CNS, in the assay with HOP-92 NSCLC, in the assay with M14 melanoma and with SK-MEL-5 melanoma was greater than 100 µM in each case. Further, the TGI with HL-60(TB) leukemia, in the assay on RPMI-8226 leukemia, in the assay on MDA-MB-435 and with K-562 leukemia was greater than 100 µM each time.
For `COC(=O)C[C@H](CCSC)NC(=O)C[C@H](CCSC)NC(=O)C[C@H](CCSC)NC(=O)OC(C)(C)C`, the TGI in the assay with SK-MEL-2 melanoma was 64.5 µM; in the assay with HCT-116 colon it was greater than 100 µM; in the assay with SNB-75 CNS, 29 µM; with HOP-92 NSCLC, 36.9 µM; in the assay on M14 melanoma, greater than 100 µM; in the assay with SK-MEL-5 melanoma, greater than 100 µM. The TGI with HL-60(TB) leukemia, with RPMI-8226 leukemia, in the assay on MDA-MB-435 and in the assay with K-562 leukemia was greater than 100 µM each time.
Consider `Nc1ccc(-c2nc3ccccc3s2)cc1`, for which the TGI was determined as 64.2 µM in the assay on SK-MEL-2 melanoma; 35.2 µM with HCT-116 colon; 58.1 µM in the assay with SNB-75 CNS; 31.9 µM in the assay with HOP-92 NSCLC; 34 µM with M14 melanoma; 50.1 µM with SK-MEL-5 melanoma. The TGI came out at 61.6 µM in the assay with HL-60(TB) leukemia, 61.1 µM with RPMI-8226 leukemia, 32.1 µM with MDA-MB-435 and 58.4 µM with K-562 leukemia.
`CC1(O)C(=O)OC2CC([C@]3(O)CCC4[C@@H]5C[C@H]6O[C@]67[C@@H](O)C=CC(=O)[C@]7(C)C5CC[C@@]43C)C1(C)C2` (stereo not given in full): the TGI in the assay with SK-MEL-2 melanoma was 28.6 µM; in the assay with HCT-116 colon it was 23.1 µM; in the assay with SNB-75 CNS, greater than 94.1 µM; in the assay with HOP-92 NSCLC it was 10.9 µM; with M14 melanoma, 26.4 µM; with SK-MEL-5 melanoma it was 45.3 µM. Moreover, the TGI with HL-60(TB) leukemia is 19.9 µM; in the assay with RPMI-8226 leukemia, 19.7 µM; with MDA-MB-435 it was 33.2 µM; with K-562 leukemia, greater than 31.6 µM.
Take `CCOC(=O)N1C(=S)C(C(=O)OC)(C(=O)OC)N=C1C`: the TGI in the assay on SK-MEL-2 melanoma, in the assay with HCT-116 colon, with SNB-75 CNS, with HOP-92 NSCLC, with M14 melanoma and in the assay on SK-MEL-5 melanoma was greater than 100 µM in each case. For the same compound, the TGI in the assay with HL-60(TB) leukemia, in the assay with RPMI-8226 leukemia, in the assay with MDA-MB-435 and with K-562 leukemia was greater than 100 µM in each case.
On to `O=C(NCc1cccnc1)C(=O)NCc1cccnc1`, for which the TGI in the assay with SK-MEL-2 melanoma, in the assay with HCT-116 colon, in the assay on SNB-75 CNS, in the assay with HOP-92 NSCLC, with M14 melanoma and in the assay on SK-MEL-5 melanoma was greater than 100 µM each time. Also, the TGI was 64.7 µM in the assay with HL-60(TB) leukemia, greater than 100 µM in the assay on RPMI-8226 leukemia, greater than 100 µM with MDA-MB-435 and greater than 100 µM in the assay with K-562 leukemia.
As to `CSc1ccccc1P(CCP(c1ccccc1SC)c1ccccc1SC)c1ccccc1SC`, the TGI in the assay on SK-MEL-2 melanoma is greater than 97.2 µM; with HCT-116 colon, greater than 100 µM; with SNB-75 CNS it was greater than 55.6 µM; with HOP-92 NSCLC, greater than 100 µM; in the assay on M14 melanoma, greater than 100 µM; in the assay with SK-MEL-5 melanoma, greater than 70.1 µM. Further, the TGI in the assay with HL-60(TB) leukemia was 16.3 µM; in the assay on RPMI-8226 leukemia, greater than 88.1 µM; with MDA-MB-435, greater than 100 µM; in the assay on K-562 leukemia, greater than 100 µM.
Take `C=CCn1c(=O)c2ccccc2[n+]2c(-c3cccc([N+](=O)[O-])c3)csc12`: the TGI in the assay on SK-MEL-2 melanoma was greater than 100 µM; in the assay with HCT-116 colon, greater than 100 µM; in the assay on SNB-75 CNS, 69.9 µM; with HOP-92 NSCLC, greater than 100 µM; with M14 melanoma, greater than 100 µM; in the assay on SK-MEL-5 melanoma, 36.5 µM. Also, the TGI is 58.2 µM with HL-60(TB) leukemia, greater than 100 µM in the assay with RPMI-8226 leukemia, greater than 100 µM in the assay with MDA-MB-435 and greater than 100 µM in the assay on K-562 leukemia.
As to `C[C@@H]1OCC(O)C([C@H]2OC(c3ccccc3)=N[C@H]2CO)O1` (stereo not given in full), the TGI in the assay on SK-MEL-2 melanoma, with HCT-116 colon, with SNB-75 CNS, in the assay with HOP-92 NSCLC, in the assay with M14 melanoma and in the assay with SK-MEL-5 melanoma was greater than 100 µM throughout. In addition, the TGI in the assay with HL-60(TB) leukemia, in the assay on RPMI-8226 leukemia, with MDA-MB-435 and in the assay on K-562 leukemia was greater than 100 µM each time.
As for `OC(O)(C(F)(F)F)C(F)(F)F`, the TGI in the assay on SK-MEL-2 melanoma, in the assay on HCT-116 colon, in the assay on SNB-75 CNS, with HOP-92 NSCLC, with M14 melanoma and with SK-MEL-5 melanoma was greater than 100 µM each time. The TGI in the assay on HL-60(TB) leukemia, in the assay on RPMI-8226 leukemia, in the assay with MDA-MB-435 and in the assay on K-562 leukemia was greater than 100 µM in each case.
Turning to `c1ccc2c(c1)c1c3n2-c2cc(on2)C3CCC1` (stereo not given), the TGI with SK-MEL-2 melanoma, in the assay with HCT-116 colon, in the assay with SNB-75 CNS, in the assay with HOP-92 NSCLC, in the assay with M14 melanoma and with SK-MEL-5 melanoma was greater than 100 µM in each case. Also, the TGI with HL-60(TB) leukemia, in the assay with RPMI-8226 leukemia, with MDA-MB-435 and with K-562 leukemia was greater than 100 µM throughout.
Take `COC(=O)C1=C(C)NC2(C)OC(C)(O)C(C(C)=O)C12C(C)=O` (stereo not given): the TGI in the assay with SK-MEL-2 melanoma is 54.6 µM; in the assay with HCT-116 colon, greater than 100 µM; in the assay on SNB-75 CNS, greater than 100 µM; with HOP-92 NSCLC, 89.2 µM; in the assay on M14 melanoma it was greater than 100 µM; with SK-MEL-5 melanoma, greater than 100 µM. Further, the TGI in the assay with HL-60(TB) leukemia, in the assay with RPMI-8226 leukemia, in the assay with MDA-MB-435 and in the assay on K-562 leukemia was greater than 100 µM in each case.
Take `C=C1C(=O)O[C@H]2C3C(=C(C)CC[C@@H]12)C(=O)[C@@H]1OC31C` (stereo not given in full): the TGI was determined as 18.3 µM in the assay on SK-MEL-2 melanoma; 2.7 µM with HCT-116 colon; 6.57 µM with SNB-75 CNS; 10.7 µM in the assay with HOP-92 NSCLC; 3.19 µM in the assay on M14 melanoma; 6.11 µM with SK-MEL-5 melanoma. Further, the TGI is 0.469 µM with HL-60(TB) leukemia, 3.62 µM in the assay on RPMI-8226 leukemia, 7.13 µM with MDA-MB-435 and 5.35 µM in the assay with K-562 leukemia.
With `N#Cc1c(-c2ccc(Cl)cc2)cc(-c2nc3ccccc3[nH]2)nc1N`, the TGI is 25.9 µM with SK-MEL-2 melanoma; 22.5 µM in the assay on HCT-116 colon; 31.2 µM in the assay on SNB-75 CNS; 26.3 µM with HOP-92 NSCLC; 16.2 µM with M14 melanoma; 20.6 µM in the assay with SK-MEL-5 melanoma. The TGI with HL-60(TB) leukemia was determined as 58.7 µM; in the assay on RPMI-8226 leukemia, 47.1 µM; in the assay on MDA-MB-435 it was 18.8 µM; with K-562 leukemia, 54.9 µM.
On to `CCOC(=O)CCC(C(=O)OCC)n1nnc2cc(Nc3c(C)[n+]([O-])c4ccc(Cl)cc4[n+]3[O-])ccc21` (stereo not given), for which the TGI in the assay on SK-MEL-2 melanoma, with HCT-116 colon, with SNB-75 CNS, in the assay on HOP-92 NSCLC, with M14 melanoma and in the assay with SK-MEL-5 melanoma was greater than 100 µM each time. Moreover, the TGI in the assay on HL-60(TB) leukemia, in the assay with RPMI-8226 leukemia, with MDA-MB-435 and in the assay on K-562 leukemia was greater than 100 µM each time.
Regarding `COc1ccc(C2=NNC(=O)c3ccccc3N2c2nc(-c3cccs3)nc3ccc(Br)cc23)cc1`, the TGI with SK-MEL-2 melanoma, with HCT-116 colon, in the assay with SNB-75 CNS, in the assay with HOP-92 NSCLC, in the assay on M14 melanoma and with SK-MEL-5 melanoma was greater than 100 µM each time. The TGI in the assay with HL-60(TB) leukemia, in the assay on RPMI-8226 leukemia, in the assay on MDA-MB-435 and in the assay with K-562 leukemia was greater than 100 µM each time.
On to `COC1=CC(=O)c2c(cc(COP(=O)(N(C)CCBr)N(C)CCBr)n2C)C1=O`, for which the TGI with SK-MEL-2 melanoma stood at 4.87 µM; in the assay with HCT-116 colon, 4.85 µM; in the assay on SNB-75 CNS it was 0.971 µM; in the assay with HOP-92 NSCLC, 7.54 µM; with M14 melanoma, 2.56 µM; in the assay with SK-MEL-5 melanoma, 2.33 µM. In addition, the TGI is greater than 100 µM with HL-60(TB) leukemia, 4.11 µM with RPMI-8226 leukemia, 2.35 µM with MDA-MB-435 and greater than 100 µM in the assay with K-562 leukemia.
On to `C=C(C(=O)OC)[C@H]1CC/C(C)=C/CC/C(C)=C/CC[C@@]2(C)O[C@@H]2C1`, for which the TGI was 29.9 µM in the assay on SK-MEL-2 melanoma; 28.7 µM in the assay on HCT-116 colon; greater than 100 µM in the assay on SNB-75 CNS; 35.1 µM with HOP-92 NSCLC; 46.5 µM in the assay on M14 melanoma; 22 µM in the assay with SK-MEL-5 melanoma. The TGI worked out at 30.9 µM with HL-60(TB) leukemia, 32.8 µM with RPMI-8226 leukemia, 58.5 µM in the assay on MDA-MB-435 and 25.7 µM in the assay with K-562 leukemia.
For `O=c1/c(=C/c2ccc(-c3ccc(Cl)cc3Cl)o2)sc2n1[C@@H](c1ccc3c(c1)OCO3)C=C(c1cc(F)c(Cl)cc1Cl)N=2`, the TGI in the assay with SK-MEL-2 melanoma was 71.1 µM; with HCT-116 colon, greater than 100 µM; in the assay with SNB-75 CNS, greater than 100 µM; in the assay with HOP-92 NSCLC, 95.5 µM; with M14 melanoma, greater than 100 µM; in the assay on SK-MEL-5 melanoma, greater than 100 µM. Also, the TGI in the assay on HL-60(TB) leukemia is greater than 100 µM; with RPMI-8226 leukemia, 88 µM; in the assay on MDA-MB-435, greater than 100 µM; in the assay with K-562 leukemia it was greater than 100 µM.
For the compound `COc1cc(S(=O)(=O)N/N=C/c2cc(Br)c(O)c(OC)c2)c(OC)cc1NC(C)=O`, the TGI with SK-MEL-2 melanoma, in the assay on HCT-116 colon, in the assay with SNB-75 CNS, in the assay with HOP-92 NSCLC, in the assay on M14 melanoma and with SK-MEL-5 melanoma was greater than 100 µM each time. The TGI is 58 µM in the assay on HL-60(TB) leukemia, greater than 100 µM with RPMI-8226 leukemia, greater than 100 µM with MDA-MB-435 and greater than 100 µM in the assay on K-562 leukemia.

The values above are taken from PubChem BioAssay (NCI).
